In patent US20240368132A1, “ROCK2 INHIBITORS AND USES THEREOF” (President and Fellows of Harvard College, priority 2021, published 2024):

Key:
ROCK1 = molecular target: T1, ROCK1 (Homo sapiens, UniProt Q13464); assay: ROCK1 kinase assay (Reaction Biology Hot Spot kinase assay); format: biochemical; conditions: purified kinase, 33P-ATP (10 μM), P81 filter-binding method
T1 construct: purchased Reaction Biology
Experimental: (§1) ROCK2 and ROCK] kinase assays
(§2) ROCK2 and ROCK1 enzyme potencies were determined by Reaction Biology (www.reactionbiology.com) using their Hot Spot kinase Assay. The base reaction buffer for the assay was 20 mM Hepes (pH 7.5), 10 mM MgCl2, 1 mM EGTA, 0.01% Brij35, 0.02 mg/mL BSA, 0.1 mM Na3VO4, and 2 mM DTT with a 1% DMSO concentration. Required cofactors were added individually to each kinase reaction. The substrate was freshly prepared in the reaction buffer described above, and then cofactors were delivered. The purified kinase was added to the substrate solution and then gently mixed. Compounds were added from 100% DMSO into the kinase reaction mixture by Acoustic technology (Echo550; nanoliter range) and then incubated for 20 min at room temperature. ^33P-ATP (10 μM) was delivered to initiate the reaction, and then the mixture was incubated again for two hours at room temperature. […] Nat. Biotechnol. 2011 Oct. 30; 29(11):1039-45. doi: 10.1038/nbt.2017.
(§3) The compounds were categorized based on IC50 value as “+”, “++”, “+++”, and “++++”. The category “+” refers to compounds with ROCK IC50 value of >10 μM. The category “++” refers to compounds with a ROCK IC50 value of 10 to 3 μM. The category “+++” refers to compounds with ROCK IC50 value of 3 to 0.3 μM. The category “++++” refers to compounds with a ROCK IC50 value of <0.3 μM. “ND” refers to “not determined.” The compound of an “Example Number” is the final product of an Example entitled the Example Number.

ROCK2 = molecular target: T2, ROCK2 (Homo sapiens, UniProt O75116); assay: ROCK2 kinase assay (Reaction Biology Hot Spot kinase assay); format: biochemical; conditions: purified kinase, 33P-ATP (10 μM), P81 filter-binding method
T2 construct: purchased Reaction Biology
T2 sequence (O75116 whole entry): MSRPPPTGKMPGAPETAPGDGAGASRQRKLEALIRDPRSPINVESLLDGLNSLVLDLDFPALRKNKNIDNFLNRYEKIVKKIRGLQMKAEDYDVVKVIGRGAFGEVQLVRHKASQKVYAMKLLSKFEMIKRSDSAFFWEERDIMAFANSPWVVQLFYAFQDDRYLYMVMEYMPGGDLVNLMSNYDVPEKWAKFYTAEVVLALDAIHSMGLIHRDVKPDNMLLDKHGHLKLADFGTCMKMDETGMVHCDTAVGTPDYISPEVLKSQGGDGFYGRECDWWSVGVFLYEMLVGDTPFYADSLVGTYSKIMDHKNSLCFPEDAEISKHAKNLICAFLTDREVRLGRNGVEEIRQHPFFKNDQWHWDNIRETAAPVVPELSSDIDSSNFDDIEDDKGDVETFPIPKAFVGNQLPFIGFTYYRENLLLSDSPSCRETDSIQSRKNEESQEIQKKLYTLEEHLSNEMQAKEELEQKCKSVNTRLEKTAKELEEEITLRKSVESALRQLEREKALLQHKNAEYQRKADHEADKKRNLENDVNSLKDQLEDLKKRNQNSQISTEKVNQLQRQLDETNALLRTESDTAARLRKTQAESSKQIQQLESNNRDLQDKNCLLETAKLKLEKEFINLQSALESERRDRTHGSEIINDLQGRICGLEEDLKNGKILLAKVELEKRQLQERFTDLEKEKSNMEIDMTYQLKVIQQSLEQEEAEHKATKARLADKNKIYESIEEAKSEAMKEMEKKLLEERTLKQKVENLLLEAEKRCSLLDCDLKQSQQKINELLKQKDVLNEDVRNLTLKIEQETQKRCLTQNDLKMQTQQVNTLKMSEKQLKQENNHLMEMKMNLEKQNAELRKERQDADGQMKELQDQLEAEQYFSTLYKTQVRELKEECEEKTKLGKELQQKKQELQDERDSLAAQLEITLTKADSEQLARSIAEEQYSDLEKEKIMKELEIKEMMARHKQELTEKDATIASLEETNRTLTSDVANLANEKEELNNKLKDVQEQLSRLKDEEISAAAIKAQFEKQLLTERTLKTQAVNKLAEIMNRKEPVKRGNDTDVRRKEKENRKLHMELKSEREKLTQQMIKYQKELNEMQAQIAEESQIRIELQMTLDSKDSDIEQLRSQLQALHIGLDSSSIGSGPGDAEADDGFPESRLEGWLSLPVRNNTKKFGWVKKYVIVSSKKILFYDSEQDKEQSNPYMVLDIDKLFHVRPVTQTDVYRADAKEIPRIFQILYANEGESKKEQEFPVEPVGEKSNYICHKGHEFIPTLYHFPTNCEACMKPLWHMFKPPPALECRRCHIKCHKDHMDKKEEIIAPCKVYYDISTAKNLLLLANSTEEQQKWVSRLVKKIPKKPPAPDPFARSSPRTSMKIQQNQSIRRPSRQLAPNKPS
Experimental: as §1, §2, §3

T1 sequence (Q13464 whole entry): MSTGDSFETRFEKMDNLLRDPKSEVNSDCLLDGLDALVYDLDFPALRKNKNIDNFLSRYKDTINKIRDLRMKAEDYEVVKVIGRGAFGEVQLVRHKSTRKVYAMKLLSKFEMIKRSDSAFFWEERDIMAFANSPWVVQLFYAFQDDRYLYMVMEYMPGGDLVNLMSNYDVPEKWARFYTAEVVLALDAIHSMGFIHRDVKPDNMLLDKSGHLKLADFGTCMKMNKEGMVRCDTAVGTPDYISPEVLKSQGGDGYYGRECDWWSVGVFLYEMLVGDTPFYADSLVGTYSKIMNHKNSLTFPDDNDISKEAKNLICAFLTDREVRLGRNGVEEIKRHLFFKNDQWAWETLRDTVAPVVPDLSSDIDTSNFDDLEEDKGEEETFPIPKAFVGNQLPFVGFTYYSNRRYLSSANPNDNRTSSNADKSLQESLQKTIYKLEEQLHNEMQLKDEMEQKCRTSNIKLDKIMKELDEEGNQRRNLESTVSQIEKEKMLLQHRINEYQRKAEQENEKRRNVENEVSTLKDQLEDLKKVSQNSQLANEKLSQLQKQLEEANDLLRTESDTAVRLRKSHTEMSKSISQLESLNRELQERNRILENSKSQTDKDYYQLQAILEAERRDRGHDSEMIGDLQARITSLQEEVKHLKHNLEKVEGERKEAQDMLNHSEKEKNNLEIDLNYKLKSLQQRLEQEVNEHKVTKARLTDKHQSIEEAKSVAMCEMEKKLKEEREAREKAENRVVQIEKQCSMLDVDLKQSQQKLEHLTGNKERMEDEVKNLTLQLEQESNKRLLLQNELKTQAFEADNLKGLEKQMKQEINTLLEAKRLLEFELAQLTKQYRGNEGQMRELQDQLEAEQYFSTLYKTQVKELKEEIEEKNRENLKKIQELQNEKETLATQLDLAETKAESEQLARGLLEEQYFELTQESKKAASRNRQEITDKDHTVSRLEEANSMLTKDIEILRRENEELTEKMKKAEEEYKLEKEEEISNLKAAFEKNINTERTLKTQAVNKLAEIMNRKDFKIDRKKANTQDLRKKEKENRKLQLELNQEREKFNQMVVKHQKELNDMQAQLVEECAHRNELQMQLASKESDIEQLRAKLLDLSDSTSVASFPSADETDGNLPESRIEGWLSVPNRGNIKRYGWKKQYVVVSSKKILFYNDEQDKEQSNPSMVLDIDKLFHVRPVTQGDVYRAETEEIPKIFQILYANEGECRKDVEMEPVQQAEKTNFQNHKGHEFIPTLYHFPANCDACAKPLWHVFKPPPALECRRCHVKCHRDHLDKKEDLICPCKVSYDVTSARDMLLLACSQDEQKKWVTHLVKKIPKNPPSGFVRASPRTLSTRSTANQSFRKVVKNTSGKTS

Cn1cc(C(=O)Nc2cc(-n3nc(Nc4ccc5[nH]ncc5c4Cl)c4ccccc43)cn(C)c2=O)cn1 [Example 69]
IC50 (ROCK1): > 10000 nM
IC50 (ROCK2): > 10000 nM

CC(C)NC(=O)COc1ccc(-n2ccc(Nc3ccc4[nH]ncc4c3Cl)n2)cc1F [Example 75, 2-(4-(3-((4-chloro-1H-indazol-5-yl)amino)-1H-pyrazol-1-yl)-2-fluorophenoxy)—N-isopropylacetamide]
IC50 (ROCK1): 300 to 3000 nM
IC50 (ROCK2): < 300 nM

COc1cc(-n2cc(C)c(Nc3ccc4[nH]ncc4c3Cl)n2)ccc1C(=O)NC1CCN(C)C1 (stereo not shown) [Example 86]
IC50 (ROCK1): < 300 nM
IC50 (ROCK2): < 300 nM

O=C(Nc1cccc(-n2ccc(Nc3ccc4[nH]ncc4c3)n2)c1)c1cccnc1 [Example 6]
IC50 (ROCK1): 300 to 3000 nM
IC50 (ROCK2): 300 to 3000 nM

O=C(Nc1cccc(-c2nnc(Nc3ccc4[nH]ncc4c3)o2)c1)c1cccnc1 [Example 38]
IC50 (ROCK1): < 300 nM
IC50 (ROCK2): < 300 nM

Cn1cc(-c2nc3cc(-n4ccc(Nc5ccc6[nH]ncc6c5Cl)n4)ccc3o2)cn1 [Example 65, 4-chloro-N-(1-(2-(1-methyl-1H-pyrazol-4-yl)benzo[d]oxazol-5-yl)-1H-pyrazol-3-yl)-1H-indazol-5-amine]
IC50 (ROCK1): 300 to 3000 nM
IC50 (ROCK2): < 300 nM

Cn1cc(C(=O)Nc2cc(-n3nc(Nc4ccc5[nH]ncc5c4Cl)c4ccccc43)ccc2F)cn1 [Example 57, N-(5-(3-((4-chloro-1H-indazol-5-yl)amino)-1H-indazol-1-yl)-2-fluorophenyl)-1-methyl-1H-pyrazole-4-carboxamide]
IC50 (ROCK1): < 300 nM
IC50 (ROCK2): < 300 nM

Cn1cc(C(=O)Nc2cccc(-n3nc(Nc4ccc5[nH]ncc5c4Cl)c4cnccc43)c2)cn1 [Example 58]
IC50 (ROCK1): < 300 nM
IC50 (ROCK2): < 300 nM

Cn1cc(C(=O)Nc2cccc(-c3noc(Nc4ccc5[nH]ncc5c4Cl)n3)c2)cn1 [Example 62, N-(3-(5-((4-chloro-1H-indazol-5-yl)amino)-1,2,4-oxadiazol-3-yl)phenyl)-1-methyl-1H-pyrazole-4-carboxamide]
IC50 (ROCK1): < 300 nM
IC50 (ROCK2): < 300 nM

COc1nc(-n2nc(Nc3ccc4[nH]ncc4c3Cl)c3ccccc32)ccc1OCC(=O)NC(C)C [Example 19]
IC50 (ROCK1): < 300 nM
IC50 (ROCK2): < 300 nM

COc1cc(-n2nc(Nc3ccc4[nH]ncc4c3)c3ccccc32)ccc1OCC(=O)NC(C)C [Example 17]
IC50 (ROCK1): 300 to 3000 nM
IC50 (ROCK2): < 300 nM

Cn1cc(-n2nc(Nc3ccc4[nH]ncc4c3Cl)c3ccccc32)cc(NC(=O)c2ccccc2F)c1=O [Example 68, N-(5-(3-((4-chloro-1H-indazol-5-yl)amino)-1H-indazol-1-yl)-1-methyl-2-oxo-1,2-dihydropyridin-3-yl)-2-fluorobenzamide]
IC50 (ROCK1): < 300 nM
IC50 (ROCK2): < 300 nM

Cn1cc(C(=O)Nc2cncc(-n3nc(Nc4ccc5[nH]ncc5c4Cl)c4ccccc43)c2)cn1 [Example 54, N-(5-(3-((4-chloro-1H-indazol-5-yl)amino)-1H-indazol-1-yl)pyridin-3-yl)-1-methyl-1H-pyrazole-4-carboxamide]
IC50 (ROCK1): > 10000 nM
IC50 (ROCK2): > 10000 nM

Cn1cc(C(=O)Nc2cccc(-n3nc(Nc4ccc5[nH]ncc5c4Cl)c4ncccc43)c2)cn1 [Example 56, N-(3-(3-((4-chloro-1H-indazol-5-yl)amino)-1H-pyrazolo[4,3-b]pyridin-1-yl)phenyl)-1-methyl-1H-pyrazole-4-carboxamide]
IC50 (ROCK1): 300 to 3000 nM
IC50 (ROCK2): < 300 nM

Cn1cc(C(=O)Nc2cccc(-n3nc(Nc4ccc5[nH]ncc5c4Cl)c4cccnc43)c2)cn1 [Example 60]
IC50 (ROCK1): < 300 nM
IC50 (ROCK2): < 300 nM

Cc1cn(-c2ccc3c(c2)CCN(S(=O)(=O)C2CC2)C3)nc1Nc1ccc2[nH]ncc2c1Cl [Example 82]
IC50 (ROCK1): > 10000 nM
IC50 (ROCK2): < 300 nM

Cc1cn(-c2cccc(NC(=O)c3cccnc3)c2)nc1Nc1ccc2[nH]ncc2c1 [Example 4, N-(3-(3-((1H-indazol-5-yl)amino)-4-methyl-1H-pyrazol-1-yl)phenyl)nicotinamide]
IC50 (ROCK1): < 300 nM
IC50 (ROCK2): < 300 nM

Cn1cc(C(=O)Nc2cccc(-c3nnc(Nc4ccc5[nH]ncc5c4)o3)c2)cn1 [Example 36]
IC50 (ROCK1): < 300 nM
IC50 (ROCK2): < 300 nM

COc1cc(-n2nc(Nc3ccc4[nH]ncc4c3Cl)cc2C)ccc1OCC(=O)NC(C)C [Example 14]
IC50 (ROCK1): > 10000 nM
IC50 (ROCK2): 300 to 3000 nM

O=C(Nc1cccc(-c2noc(Nc3ccc4[nH]ncc4c3Cl)n2)c1)c1ccccc1F [Example 61, N-(3-(5-((4-chloro-1H-indazol-5-yl)amino)-1,2,4-oxadiazol-3-yl)phenyl)-2-fluorobenzamide]
IC50 (ROCK1): < 300 nM
IC50 (ROCK2): > 10000 nM

COc1cc(-c2nc(Nc3ccc4[nH]ncc4c3Cl)no2)ccc1OCC(=O)NC(C)C [Example 73, 2-[4-[3-[(4-chloro-1H-indazol-5-yl)amino]-1,2,4-oxadiazol-5-yl]-2-methoxy-phenoxy]-N-isopropyl-acetamide]
IC50 (ROCK1): 300 to 3000 nM
IC50 (ROCK2): < 300 nM

Cc1cc(Nc2ccc3[nH]ncc3c2)nn1-c1cccc(NC(=O)c2cccnc2)c1 [Example 9]
IC50 (ROCK1): 300 to 3000 nM
IC50 (ROCK2): < 300 nM

Cn1cc(C(=O)Nc2cccc(-c3noc(Nc4ccc5[nH]ncc5c4)n3)c2)cn1 [Example 42]
IC50 (ROCK1): < 300 nM
IC50 (ROCK2): < 300 nM

COc1ncc(C(=O)Nc2cccc(-n3nc(Nc4ccc5[nH]ncc5c4)c4ccccc43)c2)cn1 [Example 25]
IC50 (ROCK1): 300 to 3000 nM
IC50 (ROCK2): 300 to 3000 nM

Cn1cc(C(=O)Nc2cccc(-n3nc(Nc4ccc5[nH]ncc5c4)c4ccccc43)n2)cn1 [Example 45, N-(6-(3-((1H-indazol-5-yl)amino)-1H-indazol-1-yl)pyridin-2-yl)-1-methyl-1H-pyrazole-4-carboxamide]
IC50 (ROCK1): < 300 nM
IC50 (ROCK2): < 300 nM

COC(=O)CN1CCOc2cc(-n3cc(C)c(Nc4ccc5[nH]ncc5c4Cl)n3)ccc21 [Example 76, methyl 2-[7-[3-[(4-chloro-1H-indazol-5-yl)amino]-4-methyl-pyrazol-1-yl]-2,3-dihydro-1,4-benzoxazin-4-yl]acetate]
IC50 (ROCK1): > 10000 nM
IC50 (ROCK2): > 10000 nM

Cn1cc(C(=O)Nc2cccc(-c3nc(Nc4ccc5[nH]ncc5c4)no3)c2)cn1 [Example 39]
IC50 (ROCK1): < 300 nM
IC50 (ROCK2): < 300 nM

Cn1cc(C(=O)Nc2cccc(-c3cc(Nc4ccc5[nH]ncc5c4)no3)c2)cn1 [Example 33]
IC50 (ROCK1): < 300 nM
IC50 (ROCK2): < 300 nM

COc1cc(-n2nc(C(F)(F)F)cc2Nc2ccc3[nH]ncc3c2Cl)ccc1OCC(=O)NC(C)C [Example 70, 2-(4-(5-((4-chloro-1H-indazol-5-yl)amino)-3-(trifluoromethyl)-1H-pyrazol-1-yl)-2-methoxyphenoxy)—N-isopropylacetamide]
IC50 (ROCK1): 300 to 3000 nM
IC50 (ROCK2): 300 to 3000 nM

Cc1cn(-c2ccc3c(c2)CCN(C(=O)C(C)C)C3)nc1Nc1ccc2[nH]ncc2c1Cl [Example 80, 1-[6-[3-[(4-chloro-1H-indazol-5-yl)amino]-4-methyl-pyrazol-1-yl]-3,4-dihydro-1H-isoquinolin-2-yl]-2-methyl-propan-1-one]
IC50 (ROCK1): > 10000 nM
ROCK2 IC50 (ROCK2): + +

Cc1cn(-c2ccc3c(c2)CCN(C(=O)NC(C)C)C3)nc1Nc1ccc2[nH]ncc2c1Cl [Example 78, 6-(3-((4-chloro-1H-indazol-5-yl)amino)-4-methyl-1H-pyrazol-1-yl)-N-isopropyl-3,4-dihydroisoquinoline-2(1H)-carboxamide]
IC50 (ROCK1): 300 to 3000 nM
IC50 (ROCK2): < 300 nM

COc1cc(-n2cc(C)c(Nc3ccc4[nH]ncc4c3Cl)n2)ccc1C(=O)NCC(F)(F)F [Example 88]
IC50 (ROCK1): > 10000 nM
IC50 (ROCK2): < 300 nM

O=C(Cc1ccccn1)Nc1cccc(-n2nc(Nc3ccc4[nH]ncc4c3)c3ccccc32)c1 [Example 26]
IC50 (ROCK1): 3000 to 10000 nM
IC50 (ROCK2): 300 to 3000 nM

Cn1cc(C(=O)Nc2cccc(-n3nc(Nc4ccc5[nH]ncc5c4)c4ccccc43)c2)cn1 [Example 21]
IC50 (ROCK1): 3000 to 10000 nM
IC50 (ROCK2): 300 to 3000 nM

O=C(Nc1cccc(-c2nc(Nc3ccc4[nH]ncc4c3)no2)c1)c1cccnc1 [Example 41]
IC50 (ROCK1): 300 to 3000 nM
IC50 (ROCK2): < 300 nM
